Laboratory results as given in the supplement of paper PMC11451515.

Test system: SEM cells
Experiment: cell viability relative to DMSO control; higher = less cytotoxic
Conditions: 48 h
Method in brief: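 Before seeding, each leukemia line was adapted for at least four passages in each medium. NOMO1 or SEM cells (500 cells/well) and P12-Ichikawa cells (1000 cells/well) went into 1536-well plates at 5 μl, then received library compounds in DMSO by pin dosing across 11 threefold concentrations, 47 μM to 0.79 nM. Readout was CellTiter-Glo One luminescence after 48 h at 37°C, and viability is given as a per-plate percentage of DMSO wells, with cell-free wells as background.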

[1] = HPLM + 10% dialyzed FBS, 0.000781 µM
[2] = HPLM + 10% dialyzed FBS, 0.00234 µM
[3] = HPLM + 10% dialyzed FBS, 0.00702 µM
[4] = HPLM + 10% dialyzed FBS, 0.0211 µM
[5] = HPLM + 10% dialyzed FBS, 0.0632 µM
[6] = HPLM + 10% dialyzed FBS, 0.19 µM
[7] = HPLM + 10% dialyzed FBS, 0.569 µM
[8] = HPLM + 10% dialyzed FBS, 1.71 µM
[9] = HPLM + 10% dialyzed FBS, 5.12 µM
[10] = HPLM + 10% dialyzed FBS, 15.4 µM
[11] = HPLM + 10% dialyzed FBS, 46.1 µM
[12] = RPMI 5 mM glucose + 10% FBS, 0.000781 µM
[13] = RPMI 5 mM glucose + 10% FBS, 0.00234 µM
[14] = RPMI 5 mM glucose + 10% FBS, 0.00702 µM
[15] = RPMI 5 mM glucose + 10% FBS, 0.0211 µM
[16] = RPMI 5 mM glucose + 10% FBS, 0.0632 µM
[17] = RPMI 5 mM glucose + 10% FBS, 0.19 µM
[18] = RPMI 5 mM glucose + 10% FBS, 0.569 µM
[19] = RPMI 5 mM glucose + 10% FBS, 1.71 µM
[20] = RPMI 5 mM glucose + 10% FBS, 5.12 µM
[21] = RPMI 5 mM glucose + 10% FBS, 15.4 µM
[22] = RPMI 5 mM glucose + 10% FBS, 46.1 µM
[23] = RPMI 5 mM glucose + 10% dialyzed FBS, 0.000781 µM
[24] = RPMI 5 mM glucose + 10% dialyzed FBS, 0.00234 µM
[25] = RPMI 5 mM glucose + 10% dialyzed FBS, 0.00702 µM
[26] = RPMI 5 mM glucose + 10% dialyzed FBS, 0.0211 µM
[27] = RPMI 5 mM glucose + 10% dialyzed FBS, 0.0632 µM
[28] = RPMI 5 mM glucose + 10% dialyzed FBS, 0.19 µM
[29] = RPMI 5 mM glucose + 10% dialyzed FBS, 0.569 µM
[30] = RPMI 5 mM glucose + 10% dialyzed FBS, 1.71 µM
[31] = RPMI 5 mM glucose + 10% dialyzed FBS, 5.12 µM
[32] = RPMI 5 mM glucose + 10% dialyzed FBS, 15.4 µM
[33] = RPMI 5 mM glucose + 10% dialyzed FBS, 46.1 µM

Row | SMILES | cell viability [1] | cell viability [2] | cell viability [3] | cell viability [4] | cell viability [5] | cell viability [6] | cell viability [7] | cell viability [8] | cell viability [9] | cell viability [10] | cell viability [11] | cell viability [12] | cell viability [13] | cell viability [14] | cell viability [15] | cell viability [16] | cell viability [17] | cell viability [18] | cell viability [19] | cell viability [20] | cell viability [21] | cell viability [22] | cell viability [23] | cell viability [24] | cell viability [25] | cell viability [26] | cell viability [27] | cell viability [28] | cell viability [29] | cell viability [30] | cell viability [31] | cell viability [32] | cell viability [33]
1 | CN1[C@@H]2CC(OC(=O)[C@@H](CO)c3ccccc3)C[C@H]1[C@H]1O[C@H]12 (stereo not given in full) | 85.3% | 88.7% | 91% | 84.7% | 93.5% | 106% | 102% | 110% | 108% | 102% | 98% | 80.9% | 82.9% | 80.7% | 85% | 90.6% | 113% | 96.2% | 106% | 89.2% | 97% | 97.9% | 90.2% | 88.8% | 105% | 86.3% | 96.3% | 105% | 117% | 114% | 101% | 113% | 108%
2 | [NH2][Pt]1([NH2])[O]CC(=O)[O]1 | 78.3% | 95.6% | 96.2% | 92.2% | 91.2% | 102% | 94.4% | 97% | 108% | 96.7% | 89.7% | 104% | 100% | 110% | 96.4% | 108% | 109% | 95.5% | 101% | 103% | 88.3% | 96.3% | 75.6% | 84.2% | 85.7% | 83.6% | 88.1% | 87.7% | 76.9% | 94.9% | 79% | 91.5% | 92.3%
3 | C[C@@H](NC1=CC=CC=C1C(O)=O)C/2=C/C(=C\N3C(=O)/C=C(\N=C23)N4CCOCC4)C | 69.7% | 76.5% | 91.3% | 77.7% | 87.8% | 77.7% | 84.3% | 79.1% | 61.1% | 13.4% | 19.8% | 89.1% | 92.3% | 117% | 92.8% | 104% | 90.6% | 98.2% | 87.5% | 55% | 8.88% | 13.3% | 65% | 76.4% | 91.7% | 87% | 92.7% | 77.8% | 70.3% | 63.9% | 44.1% | 9.08% | 11.2%
4 | CC\1=C/C=C\C=[N]1[Pt](N)(Cl)Cl | 82% | 79.2% | 91.4% | 96.5% | 102% | 84.1% | 89.5% | 89% | 98.1% | 83.6% | 85.1% | 99.2% | 119% | 126% | 108% | 119% | 124% | 114% | 109% | 110% | 120% | 58% | 80.5% | 90.5% | 97.1% | 100% | 98.1% | 91.4% | 87.3% | 83% | 91.5% | 79.5% | 55.9%
5 | CC(=O)N(C)c1cccc(-c2ccnc3c(C(=O)c4cccs4)cnn23)c1 | 99.9% | 88.7% | 104% | 37.5% | 98.7% | 99.4% | 107% | 103% | 110% | 90% | 91.7% | 108% | 107% | 95.5% | 37.7% | 112% | 101% | 94.1% | 98.5% | 101% | 98.5% | 97% | 104% | 99.7% | 87% | 46.9% | 100% | 101% | 102% | 109% | 118% | 112% | 99.6%
6 | Cc1c(CCOc2ccc(C(=O)O)cc2)c2cc(Cl)ccc2n1C(c1ccccc1)c1ccccc1 | 112% | 118% | 104% | 113% | 109% | 105% | 108% | 114% | 105% | 108% | 79.3% | 110% | 108% | 104% | 118% | 94.3% | 104% | 94.9% | 102% | 106% | 106% | 92.7% | 114% | 110% | 97.1% | 109% | 95.9% | 109% | 111% | 104% | 107% | 95.3% | 92.5%
7 | CC1=CC=CC=C1N2\C(=N/C3=C(C(=CC=C3)C)C2=O)C[N]4C=NC5=C4N=CN=C5N | 97.1% | 110% | 115% | 92.6% | 83.8% | 77.7% | 67.3% | 72.1% | 49.6% | 46.6% | 37.2% | 90.8% | 93% | 94.3% | 65.9% | 83.4% | 62.1% | 59.4% | 54.8% | 45% | 34.4% | 20.8% | 93.2% | 112% | 120% | 84.3% | 90% | 77.5% | 68.1% | 64.8% | 53.5% | 46.2% | 33.8%
8 | N=C(CCSCc1csc(N=C(N)N)n1)N[S+](N)(=O)[O-] | 85.8% | 82.3% | 96.9% | 82.6% | 94.5% | 99% | 109% | 98.5% | 106% | 96.1% | 92.6% | 89.9% | 87.6% | 103% | 88% | 91.8% | 102% | 99.4% | 96.5% | 100% | 105% | 92.2% | 80.5% | 80.4% | 107% | 82.2% | 89% | 93.6% | 96.1% | 103% | 107% | 92.6% | 116%
9 | CC(N[C@H]1C[C@@H]1c1ccccc1)c1ccc2c(c1)OCCO2 (stereo not given in full) | 111% | 135% | 116% | 122% | 110% | 122% | 126% | 126% | 141% | 116% | 109% | 99.3% | 95.1% | 94.7% | 97.7% | 107% | 100% | 108% | 110% | 107% | 98.4% | 93.5% | 121% | 123% | 100% | 121% | 110% | 134% | 138% | 111% | 119% | 119% | 92.6%
10 | CC[C@H](CC#N)OC(=O)N[C@@H](C)c1cccc(NC(=O)Nc2ccc(-c3cnco3)c(OC)c2)c1 | 105% | 98.7% | 111% | 119% | 118% | 86.2% | 71.8% | 74.8% | 44.5% | 30.3% | 31.6% | 108% | 112% | 114% | 118% | 112% | 96% | 76.3% | 68% | 47.7% | 30.2% | 18.1% | 107% | 110% | 124% | 105% | 105% | 112% | 100% | 99.6% | 67.9% | 43.3% | 38.7%
11 | CC1(C)CC(=O)c2c(C(F)(F)F)nn(-c3ccc(C(N)=O)c(NC4CCC(O)CC4)c3)c2C1 (stereo not given) | 93.6% | 84.7% | 88.6% | 98% | 93.5% | 36.8% | 20.9% | 18.4% | 19.2% | 16.9% | 77.6% | 105% | 97.5% | 84.4% | 84.2% | 111% | 37.1% | 15.7% | 19.4% | 16.1% | 17.4% | 99.9% | 83.7% | 102% | 66.3% | 63.5% | 76.6% | 34.4% | 12.8% | 20.6% | 17.8% | 18.1% | 84.3%
12 | CC/1=C/C(=O)N(O)/C(=C1)C2CCCCC2 | 82.9% | 89.7% | 119% | 111% | 116% | 106% | 126% | 126% | 117% | 50.8% | 12.6% | 113% | 111% | 135% | 124% | 129% | 143% | 140% | 147% | 101% | 55.3% | 14.2% | 92.9% | 94.4% | 126% | 117% | 122% | 147% | 140% | 144% | 113% | 56.4% | 14.4%
13 | CC1=C(/C=C/C(C)=C/C=C/C(C)=C/C=C/C=C(C)/C=C/C=C(C)/C=C/C2=C(C)CCCC2(C)C)C(C)(C)CCC1 | 96.8% | 101% | 106% | 113% | 102% | 108% | 94.3% | 110% | 115% | 95.4% | 98.1% | 93.1% | 115% | 105% | 98.3% | 106% | 108% | 94.2% | 118% | 119% | 104% | 99.4% | 101% | 100% | 114% | 106% | 109% | 105% | 92.8% | 125% | 103% | 119% | 85.5%
14 | COC(=O)Nc1nc2cc(C(=O)c3cccs3)ccc2[nH]1 | 102% | 71.5% | 94.1% | 48.1% | 28.1% | 30.4% | 24.9% | 28% | 25.8% | 28.9% | 19.8% | 95.6% | 46.7% | 88% | 37% | 15.3% | 15.1% | 17.5% | 14.8% | 13.9% | 14.3% | 14.2% | 111% | 69% | 94.4% | 51.8% | 24.7% | 25.5% | 22.3% | 27.2% | 26% | 26.6% | 22.2%
15 | CC1CCC(C(=O)N(c2cc(C#CC(C)(C)C)sc2C(=O)O)C2CCC(O)CC2)CC1 (stereo not given) | 106% | 109% | 99.2% | 103% | 98% | 93.3% | 89.1% | 96% | 77.3% | 48.9% | 44.2% | 130% | 119% | 118% | 129% | 116% | 115% | 110% | 123% | 97.4% | 61.1% | 49.8% | 91.7% | 106% | 90.3% | 87.9% | 90.3% | 90.3% | 96.6% | 88.3% | 77.6% | 44.7% | 41.8%
